Laboratory results taken from PMC11459959, “Discovery of new acetamide derivatives of 5-indole-1,3,4-oxadiazol-2-thiol as inhibitors of HIV-1 Tat-mediated viral transcription” (Antimicrobial Agents and Chemotherapy, 2024).
Read-outs that look alike come from different tables or passages of the source.

Tests used:
[1] = tested on: proviral DNA integrated to the host chromosome; experiment: Integrated proviral DNA, nested Alu-PCR in A3.01 cells; assay type: cell-based, HIV-1; settings: compounds 5 µM, 40 h after infection
Protocol: (§1) Fig 5 (A) Time-of-addition assay. […] Subsequently, the cells were treated with the compounds at the indicated time points (0, 1, 2, 4, 6, 8, 10, 12, 24, 30, 36, 42, and 48 h) after HIV-1 infection. The final concentrations of compounds are described in Materials and Methods. Viral activity according to the timing of drug addition was measured as F-Luc activity at 54 h after infection. The relative activities are represented as the mean ± SD (n = 3) compared with the activity observed 54 h post-infection. The relative time frames associated with each HIV-1 infection step are defined based on the time frame of susceptibility to the drug that blocks that particular infection step. […] At 16 h after infection, the viral reverse transcription (RT) product (viral cDNA) level was determined by quantitative real-time PCR (RT-qPCR) using gag and 18S rRNA primer sets and represented as the mean ± SD (n = 3) normalized against the amount of the 18S rRNA compared with the DMSO control. **P < 0.01 compared with the vehicle (DMSO). (C) An in vitro integrase (IN) assay was performed with 10 µM of the indicated compounds following the manufacturer’s protocol. **P < 0.01 compared with vehicle (DMSO). (D) A3.01 cells were infected with HIV-1 upon treatment with the indicated compounds (5 µM) and ARVs (EFV and DTG) as the experimental controls. At 40 h after infection, cellular chromosomal DNA was purified, and the integrated proviral DNA was detected through nested Alu-PCR amplification.
The activity of HIV-1 RT was determined as previously described with some minor modifications ([66][–][68]). In brief, HIV-1NL4-3 obtained from plasmid transfection was treated with DNase I (2.5 U/mL) for 2 h at 37°C to remove the plasmid DNA. […] Sixteen hours after infection, the cell cytosolic DNA was isolated under RNase A treatment, and the RT products (cytosolic viral cDNA) were quantified using RT-qPCR and the following primers: gag forward, 5′-[…]-3′, gag reverse, 5′-[…]-3′; 18S rRNA forward, 5′-[…]-3′, 18S rRNA reverse, 5′-[…]-3′. The relative levels of RT products were analyzed using the ΔΔCt-method, as described above. In vitro integrase activity was determined using an HIV-1 integrase assay kit (XpressBio, Frederick, MD, USA) as previously described ([12]). In brief, a 96-well plate coated with donor substrate DNA was blocked, and HIV-1 integrase was then added to the plate. Subsequently, the compounds and target substrate DNA were added to the plate and incubated for 30 min at 37°C. The plate was washed and subsequently incubated with horse radish peroxidase. Integrase activity was measured by the peroxidase activity with the substrate at an optical density of 450 nm. The experiment was performed in triplicates. Detection of integrated proviral DNA was performed as previously described ([69]) with some minor modifications. […] Chromosomal DNA was purified using the G-Spin DNA extraction kit (Intron Bio Tech, Seongnam-si, Gyeonggi-do, Republic of Korea). The integrated proviral HIV-1 DNA was detected by nested Alu-PCR amplification using the following primers: first round PCR, Alu forward, 5′-[…]-3′, pol reverse, 5′-[…]-3′; second round PCR, gag forward, 5′-[…]-3′, pol reverse. gapdh was used as the control gene.

HIV-1 integrase = target: T1, HIV-1 integrase (Human immunodeficiency virus type 1 group M subtype B, UniProt P04585); experiment: In vitro integrase assay; assay type: biochemical; settings: 10 µM
T1 construct: purchased XpressBio
Protocol: as §1, with “(C) An in vitro integrase (IN) assay was performed with 10 µM of the indicated compounds following the manufacturer’s protocol. **P < 0.01 compared with vehicle (DMSO). (D) A3.01 cells were infected with HIV-1 upon treatment with the indicated compounds (5 µM) and ARVs (EFV and DTG) as the experimental controls.” left out
The activity of HIV-1 RT was determined as previously described with some minor modifications ([66][–][68]). […] The relative levels of RT products were analyzed using the ΔΔCt-method, as described above. […]

HIV-1NL4-3 = experiment: HIV-1 replication in PBMCs (p24 […]); assay type: cell-based; settings: for EC50: Human immunodeficiency virus 1, PBMC, 72 h
Protocol: The p24 level from the cell supernatant was subsequently determined using a p24 […] kit (PerkinElmer). In parallel, the cell viability was determined without viral infection because of the viral cytopathic effect. […] In parallel, cell viability was determined. The data (A and B) are presented as the mean ± SD (n = 3). (C) PBMCs (4 × 10^5) infected with HIV-AD8 at an MOI of 0.1 were treated with 1.5 µM of the compounds or ARVs for 3 days. The levels of p24 and cell viability were subsequently determined. (D) J1.1 cells were cultured with the compounds ([…]) under 50 ng/mL phorbol myristate acetate (PMA) treatment for 2 days. The level of p24 was subsequently determined. (E) J-Lat 6.3 cells were treated with the compounds (1.5 µM) under 1 µg/mL of PMA for 2 days. The GFP-positive cell population was analyzed using flow cytometry. The data are represented as a value relative to the DMSO-treated vehicle (D) and a percent of the GFP^+ cell population (E) as mean ± SD (n = 3).
The inhibitory effects of the compounds on viral replication were determined with some minor modifications, as previously described ([12], [62]). […] PBMCs (4 × 10^5) pre-activated with PHA-M for 3 days were washed with fresh media to remove excess PHA-M and subsequently infected with HIV-1NL4-3 or HIV-1AD8 or PIs-resistant HIV-1 strains as A3.01 infection. After infection, the infectious media were replaced with fresh media supplemented with international 10 units (IU)/mL of IL-2 and the indicated compounds. At 72 h after infection, the inhibitory effect of the compounds on viral replication was determined by measuring the p24 amount, an HIV capsid protein, using an HIV-1 p24 […] kit (PerkinElmer, Waltham, MA, USA). Cell viability was determined as described above. The inhibitory effects on provirus reversing in J1.1 and J-Lat 6.3 cells were determined as previously described ([12], [41], [63]) with some minor modifications. Briefly, 5 × 10^4 persistently HIV-1-infected J1.1 or J-Lat 6.3 cells were cultured in either the presence or absence of the compounds at a final concentration of 1.5 µM and treated with PMA (50 ng/mL for J1.1 cells, 1 µg/mL for J-Lat 6.3 cells). Two days after treatment, the levels of viral production were determined using p24 […] for J1.1 cells and flow cytometry analysis for GFP-expressing J-Lat 6.3 cells.

[2] = HIV-1NL4-3 MOI 0.1, 3 days, p24, mean ± SD, read-out: EC50
[3] = Table S1, WT virus, 10-fold serial dilution, p24, 3 days, read-out: EC50
[4] = HIV-1NL4-3 MOI 0.1, 3 days, p24, read-out: EC50

Compound | nested Alu-PCR band for integrated proviral DNA [1] | inhibitory effect on in vitro integrase activity (HIV-1 integrase) | SI (CC50/EC50) (HIV-1NL4-3) | EC50 (HIV-1NL4-3; [2]) [nM] | EC50 (HIV-1NL4-3; [3]) [nM] | EC50 (HIV-1NL4-3; [4]) [nM]
Cc1[nH]c2ccc(-c3nnc(SCC(=O)N4CCCC4)o3)cc2c1C [Compound 13, 2-((5-(2,3-Dimethyl-1H-indol-5-yl)-1,3,4-oxadiazol-2-yl)thio)-1-(pyrrolidin-1-yl)ethan-1-one] | observed | did not exhibit the inhibitory effect | 282.81 | 160 ± 20 | 100 ± 10 | –
Cc1[nH]c2ccc(-c3nnc(SCC(=O)N4CCCCC4)o3)cc2c1C [Compound 9, 2-((5-(2,3-Dimethyl-1H-indol-5-yl)-1,3,4-oxadiazol-2-yl)thio)-1-(piperidin-1-yl)ethan-1-one] | observed | did not exhibit the inhibitory effect | 315.14 | 140 ± 10 | 100 | –
CC(C)[C@]12O[C@H]1[C@@H]1O[C@]13[C@]1(O[C@H]1C[C@H]1C4=C(CC[C@@]13C)C(=O)OC4)[C@@H]2O [triptolide, reference compound] | – | – | 11.23 | – | – | 16.9 ± 3.75
C[C@@H]1CCO[C@H]2Cn3cc(C(=O)NCc4ccc(F)cc4F)c(=O)c(O)c3C(=O)N12 [DTG, dolutegravir, reference compound] | not detected | – | >18,270 | – | – | < 1
O=C1Nc2ccc(Cl)cc2[C@@](C#CC2CC2)(C(F)(F)F)O1 [EFV, efavirenz, reference compound] | not detected | – | >29,460 | – | – | < 1
